Measurements published in paper PMC12624955, “Exploring diarylheptanoid derivatives to target LIMK1 as potential agents against colorectal cancer” (Journal of Enzyme Inhibition and Medicinal Chemistry, 2025).

Tests used:
[1] = tested on: HT-29; assay: Analysis of cell cycle by flow cytometry; format: cell-based; conditions: 1, 3, 10, and 30 μM for 72 h
Experimental: (§1) Cells were seeded in six-well plates at a density of 5 × 10^5 cells/well in a 2 ml culture medium and treated with compounds at the indicated concentration for 72 h. After treatment, cells were collected and fixed with 75% (v/v) ice-cold ethanol at −20 °C for 20 min. The cells were then centrifuged to remove the buffer, resuspended, and stained with 0.5 ml of propidium iodide (PI) staining buffer (80 µg/ml PI, […] RNase A, and 1% Triton X-100 in PBS). The cell cycle distribution was analysed using a BD Accuri™ Flow cytometer and software (Becton Dickinson, Mountain View, CA, USA).

[2] = tested on: HCT-116; assay: Analysis of cell cycle by flow cytometry; format: cell-based; conditions: HCT116; 1, 3, 10, and 30 μM for 72 h
Experimental: as §1

[3] = target: T1, LIMK1 (Homo sapiens, UniProt P53667); assay: LanthaScreen Eu kinase binding assay (SelectScreen), LIMK1 inhibition
T1 construct: purchased Thermo Fisher Scientific (SelectScreen Kinase assay service)
T1 sequence (P53667 whole entry): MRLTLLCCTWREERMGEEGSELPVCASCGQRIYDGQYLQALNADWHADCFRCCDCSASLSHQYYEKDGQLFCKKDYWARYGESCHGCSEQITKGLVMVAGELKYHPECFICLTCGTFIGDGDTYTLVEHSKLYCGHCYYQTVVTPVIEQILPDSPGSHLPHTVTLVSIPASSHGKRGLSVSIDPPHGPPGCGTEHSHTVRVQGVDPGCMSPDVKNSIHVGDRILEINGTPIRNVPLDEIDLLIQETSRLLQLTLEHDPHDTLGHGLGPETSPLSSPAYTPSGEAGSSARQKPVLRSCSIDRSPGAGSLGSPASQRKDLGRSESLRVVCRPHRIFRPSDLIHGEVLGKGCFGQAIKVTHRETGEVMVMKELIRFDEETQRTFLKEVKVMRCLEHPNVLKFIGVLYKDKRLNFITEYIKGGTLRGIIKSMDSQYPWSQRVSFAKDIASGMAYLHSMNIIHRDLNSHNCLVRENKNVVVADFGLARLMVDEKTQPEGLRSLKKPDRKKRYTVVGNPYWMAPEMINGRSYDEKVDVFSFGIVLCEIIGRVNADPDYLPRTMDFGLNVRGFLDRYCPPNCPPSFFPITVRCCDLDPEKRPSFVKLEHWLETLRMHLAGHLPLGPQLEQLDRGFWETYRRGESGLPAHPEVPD
Experimental: The inhibitory activities of the compounds against kinases were tested using the SelectScreen Kinase assay from Thermo Fisher Scientific in Waltham, MA, USA. The LanthaScreen Eu kinase binding assay was used to validate the LIMK1 inhibition activity of the compounds, and was performed according to the manufacturer’s protocol (https://www.thermofisher.com/tw/zt/home/industrial/pharma-biopharma/drug-discovery-development/target-and-lead-identification-and-validation/kinasebiology/kinase-activity-assays/lanthascreentm-eu-kinase-binding-assay/lanthascreen-eu-kinase-binding-assay-validation-table.html). This endpoint assay quantifies inhibitor binding through the displacement of a fluorescently labelled ATP-competitive tracer from LIMK1. A mixture of the 100× compounds, 2× LIMK1/antibody mixture (Eu-anti-His), 4× tracer 236, and kinase buffer were mixed sequentially. After incubation at room temperature for 1 h, the mixture was analysed using a fluorescence plate reader. The kinase inhibition assay results were expressed as the average of two replicates.

- IC50 [3]: 940 nM
- inhibition at 1 µM ([3]; 1 μM, Figure 4(B), read-out: Inhibition percentage at 1 μM): > 50%
- inhibition at 10 µM ([3]; compound at 10 μM, average of two replicates, read-out: Inhibition percentage at 10 μM): 109%
Compound: O=C(/C=C/c1ccc(O)c(O)c1)CCCCn1ccc2c(O)cccc21 [Compound 13a, (E)-1-(3,4-dihydroxyphenyl)-7-(4-hydroxy-1H-indol-1-yl)hept-1-en-3-one]
- population of Sub-G1 cells [1]: increased in a dose-dependent manner
- G0/G1 phase population [2]: decrease in the G0/G1 phase
- S phase population [2]: dose-dependent increase in the S phase
- population of Sub-G1 cells [2]: increased in a dose-dependent manner
